Data: patent US20100069393A1, “METHOD OF TREATMENT AND AGENTS USEFUL FOR SAME” (PRANA BIOTECHNOLOGY LIMITED, priority 2006, published 2010)

Tests used:
[1] = Mice plasma concentration; assay type: in vivo; details: for Mice plasma concentration: presence in plasma at one or two time points (between 30 min and 4 h); for Mice plasma concentration (single dose) / Mice plasma concentration at 10 mg/kg: one or two time points (between 30 min and 4 h)
[2] = In vivo toxicity, visual observations; details: number of days
[3] = Blood brain barrier penetration (brain:plasma ratio after IV dose); assay type: in vivo; details: nominal dose 5 mg/kg, male Swiss Outbred mice
Experimental: A bolus injection of each of the test compound (50 μL of a 3 mg/mL aqueous solution containing 40% propylene glycol and 10% ethanol) was administered by tail vein injection to male Swiss Outbred mice (5-7 weeks of age).
At 5 and 60 min post-dose (n=3 mice at each time point), blood was collected by cardiac puncture and the whole brain was removed by making an incision through the back of the skull. Mice were anaesthetised approximately 3-4 min prior to blood and brain harvest with an intraperitoneal injection of ketamine and xylazine (133 mg/kg and 10 mg/kg, respectively).
The whole brain was placed into preweighed polypropylene vials and stored at −20° C. until analysis. On the day of analysis, the whole brain was homogenised in 3 parts of water (on ice to reduce the potential for ex vivo brain degradation) and an aliquot of the brain homogenate and plasma was analysed for compound concentration by LCMS. Standards were prepared by spiking blank brain homogenate and both samples and standards were processed by adding acetonitrile to the tissue homogenate, centrifuging and injecting an aliquot of the supernatant onto the LCMS.
To ensure complete recovery of compound from the brain, brain homogenate was spiked with compound (in 50% acetonitrile:50% water) to a nominal concentration of 500 ng/mL. The concentration of compound in the supernatant was then determined by LCMS and compared to the supernatant concentration when compound was added following precipitation with acetonitrile.

[4] = Neurotoxicity assay: MTS viability of primary cortical neuronal cultures; assay type: cell-based, mouse; details: BL6Jx129sv, mouse, primary cortical neuronal cultures, Neuronal cells, read-out: Cytotoxicity (% viable at 1 and 10 uM); for viability at 4 days, 1 uM: test compound 1 uM; for viability at 4 days, 10 uM: test compound 10 uM
[5] = Cytotoxicity: viability of M17 cells; details: human, M17 neuroblastoma cells, Cytotoxicity (% viable at 1 and 10 uM); for viability at 1 uM: test compound 1 uM; for viability at 10 uM: test compound 10 uM

Mice plasma concentration [1] | B:P Ratio ([3]; 5 min post dose) | B:P Ratio ([3]; 60 min post dose) | Mice plasma concentration (single dose) [1] | Mice plasma concentration at 10 mg/kg [1] | Compound | Toxicity at 30 mg/kg [2] | viability at 4 days, 1 uM [4] [%] | viability at 4 days, 10 uM [4] [%] | viability at 1 uM [5] [%] | viability at 10 uM [5] [%] | Toxicity at 10 mg/kg [2]
Up to 2439 ng/mL | 0.10 at 5 min, 0.10 at 60 min | 0.10 at 5 min, 0.10 at 60 min |  |  | Cc1nc(Cn2cnc3c(O)c(Cl)cc(Cl)c3c2=O)cs1 | 10 days, none | 100 | 93 | 97 | 95.7 | 
Up to 8134.8 ng/mL |  |  |  |  | OCCN1C=Nc2c(O)c(Cl)cc(Cl)c2C1 | 10 days, none | 107 | 96 | 115 | 119 | 
Up to 4023.4 ng/mL |  |  |  |  | O=c1c2c(Cl)cc(Cl)c(O)c2ncn1Cc1cccnc1 | 10 days, none |  |  | 106 | 95.4 | 
Up to 403 ng/mL |  |  |  |  | CCNCc1ccc2c(Cl)cc(Cl)c(O)c2n1.Cl | 10 days, none | 87 | 56 | 78.3 | 44 | 
Up to 975.9 ng/mL |  |  |  |  | CCn1c(CN(C)C)nc2c(O)c(Cl)cc(Cl)c2c1=O.Cl | 10 days, none |  |  | 99.2 | 102 | 
 |  |  | Up to 142.9 ng/mL (single dose) |  | O=c1c2c(Cl)cc(Cl)c(O)c2ncn1-c1ccccn1 [drawing 171] | 10 days, none | 95 | 81 | 101 | 80.5 | 
Up to 2641 ng/mL |  |  |  |  | Br.CCCn1cnc2c(O)c(Cl)cc(Cl)c2c1=O | 10 days, none | 102 | 83 | 107 | 98.8 | 
Up to 1477.4 ng/mL |  |  |  |  | O=c1c2c(Cl)cc(Cl)c(O)c2ncn1-c1cc[nH]n1 | 10 days, none |  |  | 126 | 115 | 
 |  |  | Up to 113.2 ng/mL (single dose) |  | Br.CCN(CC)CCn1cnc2c(O)c(Cl)cc(Cl)c2c1=O | 10 days, none | 107 | 77 | 100 | 70.3 | 
Up to 45.2 ng/mL |  |  |  |  | O=c1c2c(Cl)cc(Cl)c(O)c2ncn1N1CCOCC1 | 10 days, none | 105 | 70 | 95.9 | 80.9 | 
Up to 2289 ng/mL |  |  |  |  | Br.CCN(CC)Cc1nc2c(O)c(Cl)cc(Cl)c2c(=O)[nH]1 | 10 days, none |  |  | 106 | 99.1 | 
Up to 1802 ng/mL |  |  |  |  | CC(C)Cn1cnc2c(O)c(Cl)cc(Cl)c2c1=O | 10 days, none | 99 | 70 | 102 | 75.6 | 
Up to 2181.1 ng/mL |  |  |  |  | O=c1c2c(Cl)cc(Cl)c(O)c2ncn1Cc1ccncc1 | 10 days, none |  |  | 105 | 90.4 | 
Up to 492.1 ng/mL |  |  |  |  | Br.CN(C)Cc1nc2c(O)c(Cl)cc(Cl)c2c(=O)n1C | 10 days, 1 of 4 mild signs |  |  | 104 | 111 | 
Up to 382.5 ng/mL |  |  |  |  | Br.CN1CCCC1Cn1cnc2c(O)c(Cl)cc(Cl)c2c1=O (stereo not drawn) | 10 days, none |  |  | 107 | 93.9 | 
Up to 7107 ng/mL |  |  |  |  | Cc1noc(C)c1-n1cnc2c(O)c(Cl)cc(Cl)c2c1=O | 10 days, none |  |  | 106 | 94.2 | 
Up to 17008 ng/mL |  |  |  |  | O=C(O)CCCn1cnc2c(O)c(Cl)cc(Cl)c2c1=O | 10 days, none |  |  | 110 | 103 | 
Up to 1166.6 ng/mL |  |  |  |  | CN(C)Cc1nc2c(O)c(Cl)cc(Cl)c2c(=O)n1CC1CC1.Cl | 10 days, none |  |  | 94.4 | 74.5 | 
Up to 383 ng/mL |  |  |  |  | Br.CCC(C)n1cnc2c(O)c(Cl)cc(Cl)c2c1=O (stereo not drawn) [drawing 185] | 10 days, none | 104 | 71 | 94.3 | 74.5 | 

Further lines, the compound ahead of its results:

Compound | Mice plasma concentration [1] | B:P Ratio ([3]; 5 min post dose) | B:P Ratio ([3]; 60 min post dose) | Mice plasma concentration (single dose) [1] | Mice plasma concentration at 10 mg/kg [1] | Toxicity at 30 mg/kg [2] | viability at 4 days, 1 uM [4] [%] | viability at 4 days, 10 uM [4] [%] | viability at 1 uM [5] [%] | viability at 10 uM [5] [%] | Toxicity at 10 mg/kg [2]
O=c1c2c(Cl)cc(Cl)c(O)c2ncn1CCN1CCCC1 |  |  |  | Up to 520 ng/mL (single dose) |  | 14 days, 1 of 4 death | 104 | 91 | 104 | 101 | 
CC(C)c1cnc2c(O)cccn2c1=O | Up to 409 ng/ml ng/mL |  |  |  |  | 10 days, none |  |  | 99.7 | 45.6 | 
O=c1c2c(Cl)cc(Cl)c(O)c2ncn1Cc1ccn2ccnc2c1 | Up to 1465.4 ng/mL |  |  |  |  | 10 days, none |  |  | 105 | 105 | 
O=c1c2c(Cl)cc(Cl)c(O)c2ncn1Nc1ccc(F)cc1F | Up to 1,130.6 ng/mL |  |  |  |  | 10 days, none | 100 | 92 | 105 | 83.1 | 
CC(C)Cn1cnc2c(O)c(I)ccc2c1=O |  |  |  |  | At 10 mg/kg: Up to 309 ng/ml ng/mL |  |  |  | 111 | 68.2 | At 10 mg/kg: 10 days, none
O=c1c2cccc(O)c2ncn1-c1ccc(Cl)cn1 | Up to 6 ng/mL |  |  |  |  | 10 days, none |  |  | 107 | 122 | 
CCc1cnc2c(O)c(I)ccn2c1=O |  |  |  |  | At 10 mg/kg: Up to 7082 ng/mL |  |  |  | 82.5 | 23.3 | At 10 mg/kg 10 days, none
CCCCNC(=O)C1=CN=C2C(O)=C(I)C=CN2C1 | Up to 27,598 ng/ml ng/mL |  |  |  |  | 10 days, none |  |  | 85.3 | 63.4 | 
O=c1c2c(Cl)cc(Cl)c(O)c2ncn1-c1ccc2[nH]ncc2c1 | Up to 126 ng/mL |  |  |  |  | 10 days, none |  |  | 96.2 | 88.9 | 
Cn1c(-n2cnc3c(O)c(Cl)cc(Cl)c3c2=O)nc2ccccc21 | Up to 112.4 ng/mL |  |  |  |  | 10 days, none | 105 | 97 | 107 | 94.9 | 
CCCc1cnc2c(O)c(I)ccn2c1=O | Up to 11742 ng/ml ng/mL | 0.02 | 0.03 |  |  | 10 days, none |  |  | 80.8 | 47.6 | 
O=c1c2ccc(I)c(O)c2ncn1CC1CC1 | Up to 2508 ng/mL | 0.07 | 0.06 |  |  | 10 days, none |  |  | 111 | 65.1 | 
O=c1c2c(Cl)cc(Cl)c(O)c2ncn1Cc1nc2ccccc2[nH]1 | Up to 2796 ng/mL |  |  |  |  | 10 days, none |  |  | 102 | 100 | 
CCn1cnc2c(O)c(I)ccc2c1=S | Up to 400 ng/ml ng/mL |  |  |  |  | 10 days, none, 1/4 mild signs |  |  | 85.7 | 43 | 
O=C(NCc1ccccc1)c1cnc2c(O)cccn2c1=O | Up to 22.2 ng/mL |  |  |  |  | 10 days, none |  |  | 92.7 | 97.3 | 
CCn1cnc2c(O)c(I)cc(Cl)c2c1=O | Up to 1802 ng/mL |  |  |  |  | 10 days, 2/4 deaths |  |  | 101 | 50.4 | 
O=c1c2c(Cl)cc(Cl)c(O)c2ncn1Cc1nc2ccccc2s1 | Up to 166.1 ng/mL |  |  |  |  | 10 days, none |  |  | 111 | 80.9 | 
